From a melting point compilation (Tetko et al.)

In the case of CC1=C(C)C2(C)C(C)=C(C)C12C (stereo not drawn), the melting point is reported as 0.7 °C.
O=C(CBr)c1cccc2c1OCCO2 gave a melting point of 71 to 72 °C.
With CC(C)(C)OOC(C)(C)CCC(C)(C)OOC(C)(C)C the melting point was 8 °C.
Nc1ccccc1CN1CCOCC1 gave a melting point of 70 to 71 °C.
COc1ccc(C(=O)CBr)c(OC)c1 gave a melting point of 104 °C.
For Brc1cccc2c(CNCc3cccc4c(Br)cccc34)cccc12, the melting point was 142 °C.
Work on O=C=Nc1cc([N+](=O)[O-])ccc1Cl yielded a melting point of 94 °C.
O=S(=O)(Cl)c1ccccc1OC(F)(F)F gave a melting point of 31 °C.
CNC(C)C1CCC(N)C(OC2C(N)CC(N)C(OC3OCC(C)(O)C(NC)C3O)C2O)O1 (stereo not drawn) showed a melting point of 105 °C.
Work on Cc1cncc(C#N)c1 yielded a melting point of 84 °C.
In the case of CCOc1nc2ccccc2c(=O)n1N, the melting point is reported as 97 to 98 °C.
CCCCCCCCNC(C)C(O)c1ccc(SC(C)C)cc1 (stereo not drawn) gave a melting point of 62.5 °C.
Compound CCSc1ncccc1C(=O)Cl has a melting point of 53 to 55 °C.
Work on CCN(CC)CC(=O)Nc1c(C)cc(C)cc1C yielded a melting point of 44 °C.
With COc1c2occc2c(OC)c2c(=O)cc(C)oc12 the melting point was 155 °C.
In the case of N#Cc1c(N)oc(-c2ccco2)c1-c1ccco1, the melting point is reported as 183 to 185 °C.
CCCOC(=O)C1=C(C)NC(=S)NC1c1ccco1 (stereo not drawn) showed a melting point of 177 °C.
In the case of COC1=C(OC)C(C(O)COS(=O)(=O)c2ccc(C)cc2)OC1=O (stereo not drawn), the melting point is reported as 88 to 90 °C.
For O=C1/C(=C/c2ccccc2O)SC(=S)N1CN1CCOCC1, the melting point was 166 °C.
For O=C(O)c1ccnc(C(=O)O)c1C(=O)O, the melting point was 250 °C.
Nc1cccc2c(O)nnc(O)c12 gave a melting point of 330 °C.
C=CC(C)(O)CCC=C(C)CCC=C(C)C (stereo not drawn) gave a melting point of 25 °C.
For Brc1cc(Br)ncn1, the melting point was 51 °C.
O=c1[nH]c2ccc([N+](=O)[O-])cc2c(=O)o1 gave a melting point of 259 to 263 °C.
For COc1cccc2cc(C(=O)C3CC(C)(c4c(C)cc(C)cc4C)C3)oc12 (stereo not drawn), the melting point was 96 to 97 °C.
For CCCNC(=O)NCCC, the melting point was 105 °C.
With O=C1CCCCCC1=O the melting point was -40 °C.
Work on Cc1c(C(=O)O)sc2ccc(Cl)cc12 yielded a melting point of 290 to 292 °C.
Work on O=C1C(Br)=C(c2ccccc2)c2ccccc21 yielded a melting point of 111 °C.
Work on OCc1ccccc1C(c1ccc(O)cc1)c1ccc(O)cc1 yielded a melting point of 202 °C.
Work on Cc1cccc2cccc(C)c12 yielded a melting point of 65 °C.
Compound O=C(O)c1c(Br)cccc1Br has a melting point of 150 °C.
With Cc1c(C(=O)Cl)cnn1-c1ccc(F)cc1 the melting point was 90 to 92 °C.
For COc1ccc(Cl)nn1, the melting point was 91 °C.
In the case of Cc1ccc(S(=O)(=O)CCCl)cc1, the melting point is reported as 77 to 78 °C.
In the case of Fc1cc(Br)ccc1CBr, the melting point is reported as 35 °C.
For CCC(C)(C)[C@H]1CC[C@H](O)CC1, the melting point was 26 °C.
In the case of O=C1Cc2cccc(Cl)c21, the melting point is reported as 71 °C.
Compound CC12CCC(C(CO)C1=O)C2(C)C (stereo not drawn) has a melting point of 138 °C.
For CCSc1nc(NC(C)C)nc(NC(C)C)n1, the melting point was 105 °C.
Compound C[C@]12CCC(=O)C[C@@H]1CC[C@@H]1[C@@H]2CC[C@]2(C)C(=O)CC[C@@]12O has a melting point of 225 to 227 °C.
CCn1c(-c2ccccc2)cc2ccccc21 gave a melting point of 86 °C.
Cc1cc(O)c(C(=O)O)c(O)c1 gave a melting point of 176 °C.
CCc1ccc(C(c2ccc(CC)o2)c2cc3c(cc2[N+](=O)[O-])OCCO3)o1 gave a melting point of 86 °C.
NC(=O)Oc1ccc(Cc2ccccc2)cc1 gave a melting point of 148 °C.
CCOC(=O)CC(=O)c1ccncc1 showed a melting point of 53 to 59 °C.
With Cc1cc(C(=O)O)cc(O)n1 the melting point was 240 °C.
For CC(=O)OC1CCC2(C)C(CCC3C2CCC2(C)C3CCC23OCCO3)C1 (stereo not drawn), the melting point was 153 °C.
O=C(c1ccc(Cl)cc1)c1cc2c(cc1Br)OCCO2 gave a melting point of 129 to 130 °C.
Cc1ccc(I)cc1[N+](=O)[O-] gave a melting point of 60 °C.
In the case of CCOC(=O)c1cc(I)c(N)c(I)c1, the melting point is reported as 145 to 146 °C.
In the case of ON=CC1=C(/C=C/c2ccccc2)CCC1, the melting point is reported as 162 to 163 °C.
In the case of Cc1cc(C(=O)O)ccc1Br, the melting point is reported as 216 °C.
Work on CC1(C(=O)O)CCCC2(C)c3cc(O)ccc3CCC12 (stereo not drawn) yielded a melting point of 194 °C.
In the case of COc1cc2c(cc1OCc1ccccc1)C(C)N(C)CC2 (stereo not drawn), the melting point is reported as 82 °C.
Compound Cc1onc(-c2ccccc2)c1C(=O)CBr has a melting point of 46 to 48 °C.
For CC(=O)Oc1ccc(OC(C)=O)c(C(C)(C)C)c1, the melting point was 64.5 to 65.5 °C.
With CN1C(=O)C(=NNc2ccc(Br)cc2)C(=O)N(C)C1=O the melting point was 218 °C.
For CS(=O)(=O)c1ccc(N)c(Cl)c1, the melting point was 191 to 198 °C.
With CCn1ccc2ccccc21 the melting point was 105 °C.
Work on NNS(=O)(=O)c1ccc(-c2ccccn2)s1 yielded a melting point of 109 to 111 °C.
Oc1ccnc2c(C(F)(F)F)cccc12 showed a melting point of 172 °C.
In the case of O=C(O)C(O)Cc1ccccc1 (stereo not drawn), the melting point is reported as 121 to 125 °C.
CCCCCCCCCCCCCCCCC1CCCCC1 gave a melting point of 33.6 °C.
O=C(O)CC[C@H](NC(=O)OCc1ccccc1)C(=O)O showed a melting point of 118 to 121 °C.
Work on N#CCS(=O)(=O)Cc1ccc(Cl)cc1 yielded a melting point of 179 to 182 °C.
With CCCCSP(SCCCC)SCCCC the melting point was 100 °C.
In the case of CSCCC=O, the melting point is reported as -58 °C.
Work on FC(F)(F)C(F)(F)C(F)(F)F yielded a melting point of -148 °C.
CS(=O)(=O)Cc1ccccc1 showed a melting point of 126 °C.
CN(C)P(=O)(OP(=O)(N(C)C)N(C)C)N(C)C showed a melting point of 17 °C.
Compound N#Cc1c(N2CCCC2)nc(N)c2c(-c3ccccc3)cc(-c3ccccc3)nc12 has a melting point of 236 °C.
With CN(C)c1ccc(C2(c3ccc(N(C)C)cc3)OC(=O)c3cc(N(C)C)ccc32)cc1 the melting point was 182 °C.
With c1ccc(P(c2ccccc2)c2ccccc2Oc2ccccc2P(c2ccccc2)c2ccccc2)cc1 the melting point was 184 to 187 °C.
Compound COC(=O)c1ccno1 has a melting point of 49 °C.
Compound COc1ccc(F)c(C#N)c1 has a melting point of 83 °C.
CNC(=C[N+](=O)[O-])OC gave a melting point of 116 to 120 °C.
For CN(C1=NC(=Cc2ccccc2)C(=O)N1c1ccccc1)c1ccccc1, the melting point was 207 °C.
Compound OCC(O)CN1CCCC1 (stereo not drawn) has a melting point of 43 to 48 °C.
Compound c1cc2c(c(NC3=NCCN3)c1)CCCC2 has a melting point of 142 °C.
Compound O=C(OCC(=O)N1CCC(O)CC1)c1ccccc1 has a melting point of 122 °C.
CCOP(=S)(Oc1ccc([N+](=O)[O-])cc1)c1ccccc1 (stereo not drawn) gave a melting point of 36 °C.
In the case of Cc1c(C)c(C)c(S(=O)(=O)Cl)c(C)c1C, the melting point is reported as 80 °C.
CCc1ccc(CCl)cc1 gave a melting point of -21 °C.
For OCc1cccc(CO)n1, the melting point was 112 to 115 °C.
Work on CC12CCC(O)CC1CCC1C2CCC2(C)C(OC(=O)c3ccccc3)CCC12 (stereo not drawn) yielded a melting point of 194 °C.
COc1cc2c(Cc3ccccc3)cncc2cc1O gave a melting point of 207 °C.
COc1ccc(CNc2ccccn2)cc1 showed a melting point of 121 to 126 °C.
With CCc1cccc(C)c1N the melting point was -25 °C.
Work on O=C(C=Cc1ccc(Cl)c(Cl)c1)C=Cc1ccc(Cl)c(Cl)c1 yielded a melting point of 175 to 177 °C.
Work on O=[N+]([O-])c1ccccc1/C=C/c1ccccc1 yielded a melting point of 73 °C.
O=C(O)c1cc(F)c(Cl)cc1F showed a melting point of 153 to 158 °C.
For CCCCNc1ccccc1, the melting point was -12 °C.
For Cn1c(/C(C#N)=N/Nc2ccc([N+](=O)[O-])cc2)nc2ccccc21, the melting point was 238 °C.
CC(O)C(c1ccccc1)c1ccccc1 (stereo not drawn) gave a melting point of 59 to 63 °C.
With OCCn1ccnc1 the melting point was 39 °C.
O=C1c2ccccc2C(=O)C1(O)O gave a melting point of 250 °C.
For COc1cc(/C=C/C(=O)CC(=O)/C=C/c2ccc(O)c(OC)c2)ccc1O, the melting point was 183 °C.
O=C1NCN(c2ccccc2)C12CCNCC2 showed a melting point of 183 to 185 °C.
With O=C(O)CCCOc1ccc(Cl)cc1Cl the melting point was 118 °C.
With COc1ccccc1-c1nnc2n1NC(c1ccco1)S2 (stereo not drawn) the melting point was 226 °C.
In the case of O=Cc1coc2c(Cl)cc(Cl)cc2c1=O, the melting point is reported as 169 to 174 °C.
O=C1CCCCCN1c1ccccc1 gave a melting point of 57 °C.
C=CCNC(=S)NNC(=O)C(=O)c1c[nH]c2ccccc12 gave a melting point of 229 °C.
In the case of O=C1OC(c2ccccc2)=NC1=Cc1ccccc1F, the melting point is reported as 148 to 149 °C.
Compound O=C(CCl)Nc1ccc(F)c(Cl)c1 has a melting point of 96 to 98 °C.
Work on CCc1c(C(=O)O)c(=O)cnn1-c1ccc(Cl)cc1 yielded a melting point of 269 °C.
In the case of CC(C)(C)OC(=O)NC(Cc1cccs1)C(=O)O (stereo not drawn), the melting point is reported as 71 to 76 °C.
Work on OCCC1CCCCC1 yielded a melting point of -20 °C.
Work on c1ccc2c(c1)OCCOCCNCCOCCO2 yielded a melting point of 147 to 149 °C.
With COc1cc(Cl)c(Cl)cc1OC the melting point was 83 °C.
For COc1cc2c(cc1OC)CC2, the melting point was 91 °C.
With N#CC1(O)C(C2COC3(CCCCC3)O2)OC2OC3(CCCCC3)OC21 (stereo not drawn) the melting point was 107 to 113 °C.
For O=Cc1cccc2ccnn12, the melting point was 85 °C.
Work on CNC(=O)OCc1cccc(COC(=O)NC)n1 yielded a melting point of 136 °C.
Cc1ccc2c(ccc3cc4ccccc4cc32)c1 gave a melting point of 156 °C.
Work on O=C(O)c1cnccc1Cl yielded a melting point of 200 to 215 °C.
O=C(O)c1cccc(F)c1O gave a melting point of 147 °C.
Work on O=C(CBr)Nc1ccccc1C(=O)c1ccccc1 yielded a melting point of 94 to 95 °C.
Work on OC(O)C(Cl)(Cl)Cl yielded a melting point of 57 °C.
OCc1ccc(CN2CCOCC2)cc1 gave a melting point of 94 °C.
In the case of BrCc1cccc(N2CCCC2)n1, the melting point is reported as 69 to 72.5 °C.
Work on N#Cc1ccc(CCc2ccc(C#N)cc2)cc1 yielded a melting point of 198 to 203 °C.
Compound Cc1ccc(C)c(C(O)C(=O)O)c1 (stereo not drawn) has a melting point of 115 to 118 °C.
Work on CCCCCCCCCCCCOc1ccc(C(C)=O)cc1OCCCCCCCCCCCC yielded a melting point of 62 to 67 °C.
With OCc1cc(CO)cc(OCc2cc(COc3cc(CO)cc(CO)c3)cc(COc3cc(CO)cc(CO)c3)c2)c1 the melting point was 144 °C.
With N#Cc1ccncc1Br the melting point was 93 °C.
In the case of CN(CCO)c1cc(C(F)(F)F)nc2ccccc12, the melting point is reported as 90.5 to 92.5 °C.
With Nc1ccccc1-c1c(-c2ccccc2)noc1-c1ccccc1 the melting point was 185 °C.
O=Cc1cccc2c(Br)cccc12 showed a melting point of 105 °C.
Cc1cc([N+](=O)[O-])cc(Br)c1N gave a melting point of 177 to 183 °C.
With O=c1[nH]cc(Cl)c(=O)[nH]1 the melting point was 300 °C.
CC(=O)CCn1cc([N+](=O)[O-])nc1C showed a melting point of 98 to 100 °C.
